Measured values as given in article PMC6287599, “2,6-Bis(2-Benzimidazolyl)Pyridine (BBP) Is a Potent and Selective Inhibitor of Small Conductance Calcium-Activated Potassium (SK) Channels” (Frontiers in Pharmacology, 2018).

What was measured:
Assay type in all cases: cell-based
[1] = biological target: hSK1 (Homo sapiens, UniProt Q92952); assay: Automated patch clamp (QPatch 16), whole cell, stable HEK293 cell line expressing hSK1; details: HEK stable line, 400 nM free intracellular calcium, mean ± SEM, n = 9
Description: (§1) Three different stable HEK293 cell lines expressing hSK1, hSK2 or hSK3 (NeuroSearch A/S, Ballerup, Denmark) and a CHO stable cell line expressing hERG (University of Copenhagen, Copenhagen, Denmark) were used for automated patch clamp. These cells were cultivated and prepared as previously described (Skarsfeldt et al., [2016]).
(§2) Automated patch clamp (QPatch 16, Sophion, Denmark) on SK-expressing HEK293 cell lines was conducted as previously described (Simó-Vicens et al., [2017b]). Briefly, SK currents were elicited by voltage-ramps starting at −80 mV and finishing at +80 mV from a holding potential of 0 mV. Extracellular solution contained 0.1 mM CaCl2, 3 mM MgCl2, 154 mM KCl, 10 mM HEPES and 10 mM glucose with pH 7.4. Intracellular solution for SK experiments contained 8.106 mM CaCl2 (final free calcium concentration of 400 nM), 1.167 mM MgCl2, 10 mM EGTA, 154 mM KCl, 10 mM HEPES, 31.25/ 10 mM KOH/EGTA and 15 mM KOH with pH 7.2. Automated patch clamp on hERG-expressing CHO cell line was performed also as previously described (Skarsfeldt et al., [2016]).
(§3) Individual IC50 values were calculated for each cell with the built-in nonlinear fit log(inhibitor) vs. normalized response equation:
(§4) Where Y is the normalized response, from 100, corresponding to current recorded during saline perfusion, down to 0, corresponding to currents recorded in the presence of bicuculline methiodide 100 μM. […]

[2] = biological target: hSK3 (Homo sapiens, UniProt Q9UGI6); assay: Automated patch clamp (QPatch 16), whole cell, stable HEK293 cell line expressing hSK3; details: HEK stable line, 400 nM free intracellular calcium, mean ± SEM, n = 9
Description: as §1, §2, §3, §4

[3] = biological target: T1, hBK (Homo sapiens, UniProt Q12791); assay: Manual whole cell patch clamp, HEK293 transiently transfected with hBK; details: BBP 1 μM, manual patch clamp, 100 nM free intracellular calcium, n = 8
T1 construct: expressed in transfected cells; host or cells: HEK293 (transient, co-transfected with eGFP)
Description: HEK293 cells were transiently co-transfected with the plasmid of interest (hBK, hSK1, hSK2, hSK3 WT, rSK3 H491N, or hIK) and eGFP using standard Lipofectamine™ 2000 (Thermo Fisher Scientific, Waltham, Massachussets, USA) transfection protocols. After transfection, cells were incubated overnight before the experiments.
Manual patch clamp experiments were performed at room temperature in the whole cell configuration with a HEKA EPC9 amplifier and the Patchmaster software (HEKA Elektronik, Ludwigshafen, Germany). All currents were elicited every 2 s using an incremental 200 ms voltage-ramp protocol starting at −80 mV and finishing at +80 mV from a holding potential of 0 mV. […]
To assess the effect of BBP on other calcium-activated potassium channels (hBK, hSK3 WT, rSK3 H491N, and hIK), each individual current was first normalized to its cell size using membrane's capacitance (pA/pF) before statistical analysis. […] Statistical significance between saline and the effect of both BBP and the corresponding reference compound was determined for each channel using one-way ANOVA analysis. […]
After testing BBP on the three SK channel subtypes, we decided to explore whether other calcium-activated potassium channels were affected by the compound. […] Finally, a positive control was used to inhibit the remaining current and quantify the total effect of BBP. […]

T1 sequence (Q12791 whole entry): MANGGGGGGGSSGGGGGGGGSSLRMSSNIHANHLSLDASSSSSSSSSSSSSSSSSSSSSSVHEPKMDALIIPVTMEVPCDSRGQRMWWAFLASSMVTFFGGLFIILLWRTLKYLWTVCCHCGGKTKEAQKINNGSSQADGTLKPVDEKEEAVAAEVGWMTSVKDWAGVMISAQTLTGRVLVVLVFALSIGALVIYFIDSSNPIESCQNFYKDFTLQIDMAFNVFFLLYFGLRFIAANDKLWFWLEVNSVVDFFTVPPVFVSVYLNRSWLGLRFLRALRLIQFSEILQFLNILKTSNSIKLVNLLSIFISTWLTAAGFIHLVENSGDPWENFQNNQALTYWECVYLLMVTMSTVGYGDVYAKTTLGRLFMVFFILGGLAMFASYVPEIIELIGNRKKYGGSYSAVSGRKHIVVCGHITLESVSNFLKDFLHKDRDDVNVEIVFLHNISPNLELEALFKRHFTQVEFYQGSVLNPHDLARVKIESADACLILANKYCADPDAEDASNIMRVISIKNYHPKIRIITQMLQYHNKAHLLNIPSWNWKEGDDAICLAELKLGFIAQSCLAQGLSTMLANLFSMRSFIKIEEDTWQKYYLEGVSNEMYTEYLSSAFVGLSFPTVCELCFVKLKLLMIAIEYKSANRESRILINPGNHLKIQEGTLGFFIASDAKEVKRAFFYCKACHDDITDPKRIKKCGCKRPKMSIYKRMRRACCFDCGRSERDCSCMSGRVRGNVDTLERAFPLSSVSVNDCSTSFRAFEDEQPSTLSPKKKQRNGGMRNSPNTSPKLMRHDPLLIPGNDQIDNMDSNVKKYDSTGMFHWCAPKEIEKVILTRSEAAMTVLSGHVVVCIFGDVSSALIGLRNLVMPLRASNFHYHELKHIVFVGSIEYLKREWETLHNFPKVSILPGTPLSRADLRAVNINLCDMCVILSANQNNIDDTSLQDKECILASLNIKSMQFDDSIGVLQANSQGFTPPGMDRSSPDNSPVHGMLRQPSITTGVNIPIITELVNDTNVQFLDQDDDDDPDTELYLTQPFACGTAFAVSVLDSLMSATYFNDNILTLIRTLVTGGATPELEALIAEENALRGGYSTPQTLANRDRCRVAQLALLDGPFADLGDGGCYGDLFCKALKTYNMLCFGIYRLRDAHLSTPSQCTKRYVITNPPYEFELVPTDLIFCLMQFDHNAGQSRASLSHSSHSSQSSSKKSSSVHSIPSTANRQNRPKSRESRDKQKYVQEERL

- IC50 [1]: 700 ± 200 nM
- IC50 [2]: 400 ± 200 nM
- Reduction of hBK current [3]: 19 ± 6%
SMILES: c1cc(-c2nc3ccccc3[nH]2)nc(-c2nc3ccccc3[nH]2)c1 [BBP, 2,6-Bis(2-benzimidazolyl)pyridine]
